Experimental findings from the supplement of paper PMC10290057 are described below.

Assay [1] relates to HCT116. Briefly: AC50 cell viability (CellTiter-Glo); higher = less potent. The note with it: 48 h. In general terms: In ATP-based viability assays light output follows the ATP content of the culture.
Assay [2] deals with HCT116. Nature of the assay: efficacy (fitted maximal change in viability relative to DMSO control); higher = less cytotoxic (negative = loss of viability). The note with it: 48 h.
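For AC50 cell viability (CellTiter-Glo) in this document: HCT116 colorectal carcinoma cells screened at five concentrations per compound, luminescent viability scaled between DMSO wells and empty wells on each plate, curves fitted per compound.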
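For efficacy (fitted maximal change in viability relative to DMSO control) in this document: Luminescence-based viability readout, five doses per compound, normalized against on-plate DMSO and empty-well controls, followed by dose-response curve fitting for every drug.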

`COc1cc([S+](C)(=O)[O-])ccc1Nc1nc2ccc(-c3ccc(NC(=O)[C@H](C)c4ccc(F)cc4)cc3)cn2n1` returned an AC50 cell viability in assay [1] of 0.132 µM. Also, in assay [2], the efficacy is -30.6%.
As to `COc1cc2ncn(-c3cc(OCc4ccccc4C(F)(F)F)c(C(N)=O)s3)c2cc1OC`, the AC50 cell viability in assay [1] was found to be 0.934 µM. Further, the efficacy in assay [2] is -78.4%.
`COc1ccc(N(C(=O)Oc2c(C)cccc2C)c2ccnc(Nc3ccc(N4CCN(C)CC4)cc3)n2)c(OC)c1`: in assay [1], the AC50 cell viability came out at 0.661 µM. In assay [2], the efficacy was -41%.
In the same order, the values of `COc1ccc2c(c1)[C@]1(C[C@H]1c1ccc3c(/C=C/c4ccc(CN5C[C@@H](C)O[C@@H](C)C5)cc4)n[nH]c3c1)C(=O)N2` are 13.2 µM and -83.6%.
`COC1=CC=CC(=C1N)\C2=C\C(=O)C3=C(O2)C=CC=C3` had an AC50 cell viability in assay [1] of 16.6 µM. Further, the efficacy in assay [2] is -52.9%.
In assay [1], `CO[C@@H](C)Cn1c(=O)n(C)c2cnc3ccc(-c4cncc(C(C)(C)O)c4)cc3c21` displayed an AC50 cell viability of 1.05 µM. Further, in assay [2], the efficacy is -82.3%.
In assay [1], `C[C@@H](N)c1ccc(C(=O)Nc2ccnc3[nH]ccc23)cc1` yielded an AC50 cell viability of 4.68 µM. Besides, in assay [2], the efficacy is -62.4%.
With `C[C@@H]1CCNC(=O)c2cc3ccc(C(=O)Nc4nc5ccccc5n4CCCN(C)C)cc3n21`, the AC50 cell viability in assay [1] turned out to be 11.8 µM. Moreover, the efficacy in assay [2] is -92.3%.
`Cc1cccc(CC(=O)N2CCc3c2ccc(-c2cn(C)c4ncnc(N)c24)c3F)n1` had an AC50 cell viability in assay [1] of 0.661 µM. In assay [2], the efficacy was -43.2%.
Take `Cc1cc(C(=O)Nc2cc(Nc3ccc4c(/C=C/c5ccccn5)[nH]nc4c3)ccc2F)n(C)n1`: the AC50 cell viability in assay [1] is 10.5 µM. Further, in assay [2], the efficacy was -99.1%.
For `Cn1ncc(Cl)c1-c1cc(C(=O)N[C@H](CN)Cc2ccc(F)c(F)c2)sc1Cl`, in that order: 16.6 µM and -116%.
For `Cn1nccc1Nc1nccc(-c2cc3c(s2)C(C)(C)N(CCN2CCOCC2)C3=O)n1`, in that order: 0.525 µM and -57.4%.
In the case of `Clc1cc(Cl)cc(CNc2ncncc2-c2ccc3c(c2)OCO3)c1`, the AC50 cell viability in assay [1] worked out at 13.2 µM. For the same molecule, the efficacy in assay [2] is -78.4%.
Turning to `O=C(c1ccc(F)cc1)N1CCC[C@H](c2nc(-c3ccc(F)cc3)no2)C1`, in assay [1], the AC50 cell viability came out at 14.8 µM. Also, in assay [2], the efficacy is -35.7%.
As for `NC(=O)c1ccc2nc(-c3ccc(C4(N)CCC4)cc3)c(-c3ccccc3)n2n1`, in assay [1], the AC50 cell viability was 20.9 µM. Also, the efficacy in assay [2] was -103%.
In the same order, the values of `C=CC(=O)N1CCC[C@@H](n2nc(-c3ccc(Oc4ccccc4)cc3)c3c(N)ncnc32)C1` are 16.6 µM and -90.8%.
Turning to `Nc1nc(NCCNc2ncc(-n3ccnc3)c(-c3ccc(Cl)cc3Cl)n2)ccc1[N+](=O)[O-]`, in assay [1], the AC50 cell viability was 2.09 µM. For the same molecule, the efficacy in assay [2] was -32%.
For `N#Cc1ccc(COC[C@H]2O[C@@H](n3c(NCc4ccc(Cl)c(Cl)c4)nc4c(N)ncnc43)[C@H](O)[C@@H]2O)cc1`, in that order: 16.6 µM and -99.6%.
In the same order, the values of `NCC(=O)Nc1ccc(-n2nc(C(F)(F)F)cc2-c2ccc3c(ccc4ccccc43)c2)cc1` are 13.2 µM and -124%.
In the same order, the values of `NC(=O)c1cnc(N[C@@H]2CCCC[C@@H]2N)nc1Nc1cccc(-n2nccn2)c1` are 10.5 µM and -90.7%.
With `O=C(Nc1ccc2[nH]nc(-c3ccncc3)c2c1)[C@@H]1CCN(CC(=O)N2CCN(c3ccc(-c4ncccn4)cc3)CC2)C1`, the AC50 cell viability in assay [1] worked out at 0.295 µM. For the same molecule, the efficacy in assay [2] is -64.3%.
Consider `OC1=C(Cl)C=C(N\C2=C(\C(=O)NC2=O)C3=C(C=CC=C3)[N+]([O-])=O)C=C1`, for which, in assay [1], the AC50 cell viability was 20.9 µM. Moreover, the efficacy in assay [2] was -54.8%.
In the same order, the values of `Oc1ccc(C2CCN(c3ccnc4ccccc34)CC2)cc1O` are 11.8 µM and -49%.
With `OC1CCC(Nc2ncc3nc(Nc4c(F)cc(F)cc4F)n([C@@H]4CCOC4)c3n2)CC1` (stereo partly specified), in assay [1], the AC50 cell viability came to 18.6 µM. Further, in assay [2], the efficacy is -43.3%.
As for `O=C(NOCC(O)CO)c1cc(Br)c(F)c(F)c1Nc1ccc(I)cc1F` (stereo unspecified), the AC50 cell viability in assay [1] was found to be 0.934 µM. Also, in assay [2], the efficacy was -69.5%.
With `OCCCNc1cc(-c2ccnc(Nc3cccc(Cl)c3)n2)ccn1`, the AC50 cell viability in assay [1] worked out at 0.059 µM. In assay [2], the efficacy is -58.5%.
As for `O=[N+]([O-])c1ccc(Nc2ccccc2-c2ccccc2)c2nonc12`, the AC50 cell viability in assay [1] stood at 16.6 µM. Moreover, the efficacy in assay [2] was -90.7%.
On to `O=C1c2ccccc2-c2n[nH]c3cccc1c23`, for which, in assay [1], the AC50 cell viability is 13.2 µM. For the same molecule, the efficacy in assay [2] is -63.8%.
